Laboratory results published in patent publication US20250205342A1, “IRAK DEGRADERS AND USES THEREOF” (Kymera Therapeutics, Inc., priority 2022, published 2025).

Assays:
IRAK4 [1] = target: T1, IRAK4 (Homo sapiens, UniProt Q9NWZ3); test: IRAK4 degradation in OCI-LY10 (MSD, Meso Scale Discovery); format: cell-based; design: endogenous in cells; host or cells: OCI-LY10; details: OCI-LY10 cells, 24 h
T1 sequence (Q9NWZ3 1-460): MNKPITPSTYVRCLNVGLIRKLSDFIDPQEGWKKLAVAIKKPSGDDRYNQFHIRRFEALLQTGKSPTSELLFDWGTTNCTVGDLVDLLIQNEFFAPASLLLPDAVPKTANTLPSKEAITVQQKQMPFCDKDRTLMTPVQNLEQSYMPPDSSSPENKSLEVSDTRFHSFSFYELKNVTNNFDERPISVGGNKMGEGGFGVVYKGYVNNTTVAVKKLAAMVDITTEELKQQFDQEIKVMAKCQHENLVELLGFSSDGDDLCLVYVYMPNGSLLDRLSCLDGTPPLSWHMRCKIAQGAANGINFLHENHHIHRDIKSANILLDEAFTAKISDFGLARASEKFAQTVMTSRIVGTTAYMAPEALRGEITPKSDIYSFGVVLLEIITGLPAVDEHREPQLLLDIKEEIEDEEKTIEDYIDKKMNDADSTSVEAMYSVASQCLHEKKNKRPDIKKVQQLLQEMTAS
Experimental: Degradation of IRAK4 in OCI-LY10 was quantitatively measured using Meso Scale Discovery technology. OCI-LY10 cells were seeded in 96-well plates (Corning 3799) with a density of 300,000 cells per well in 100 μL fresh media. Compounds were then added to the assay plates with a final top concentration of 1 to 10 μM in a 1:3 dilution series with total of 8 doses. The assay plates were then incubated for 4 to 24 hours at 37° C. under 5% CO2. The assay plates were then centrifuged for 5 minutes and the cell pellets were treated with 100 μL/well RIPA lysis buffer (Boston BioProducts BP-115D) with proteinase inhibitors. To prepare MSD assay plates (Meso Scale Discovery Catalog number L15XA-3), the plates were coated with 2 ug/mL capture antibody (mouse Anti-IRAK4 antibody [2H9], ab119942) in PBS, at 40 μL/well. The plates were then incubated overnight at […], washed 3 times with 150 μL/well TBST buffer (Cell Signaling Technology, Catalog number 9997S) and blocked with 150 μL/well blocking buffer (Meso Scale Discovery Catalog number R^93BA-4). Cell lysates were then added to MSD assay plates and the plates were incubated at room temperature for 1 hour. The plates were then washed 3 times with 150 μL/well TBST buffer and 25 μL/well primary detection antibody (rabbit Anti-IRAK4 antibody [Y279], from Abcam. Catalog number ab32511, 1 μg/mL). The assay plates were then incubated at room temperature for 1 hour, washed 3 times with 150 μL/well TBST buffer and 25 μL/well secondary detection antibody, SULFO-TAG anti-rabbit antibody were added (anti-rabbit antibody from Meso Scale Discovery, Catalog number R^32AB-1, 1 μg/mL). The assay plates were then incubated at room temperature for 1 hour, washed 3 times with 150 μL/well TBST buffer, and 150 μL/well MSD reading buffer (Meso Scale Discovery catalog number R^92TC-2) was added. The plates were then analyzed by a MSD reader (Meso Scale Discovery, Model Quick Plex SQ 120). The data was then analyzed by software Prism 7.0 from GraphPad and the dose-depended IRAK4 degradation were fit using a three-parameter logistic equation to calculate DC50.
(§1) IRAK4 MSD degradation in OCI-LY10 results at 4 and 24 hrs and hPBMC at 20 hrs for compounds of the invention are presented in Table 3. The letter codes for IRAK4 DC50 include: A (<0.1 μM), B (0.1-1.0 μM), C(>1.0-10.0 μM), D (>10.0 μM or not determined).

IRAK4 [2] = target: T1, IRAK4; test: hPBMC IRAK4 degradation flow assay (monocytes); format: cell-based; design: endogenous in cells; host or cells: human PBMCs (monocytes, CD14 positive gate); details: CD14 positive monocytes, 20 h, read-out: hPBMC monocyte DC50 at 20 h
Experimental: In the hPBMC IRAK4 degradation flow assay, frozen PBMCs were thawed into RPMI with 10% FBS and allowed to recover. On the same day as thawed, PBMCs were plated in 96 well plate, 90 μL per well. Compound plates were prepared and a 10 point, 5-fold dilution was performed with a final DMSO concentration of 0.1%. Compound 10 μL per well was added, sealed and incubated at 37° C., 5% CO2 for 20 hours (for 4 hour treatment, compounds were prepared and added the following day). Following the treatment incubation period (day 1), 1.6% PFA was added to PBMC plate and placed on plate shaker for 30 seconds and incubated for 10 mins at room temperature. Cells were spun down and washed two times with PBS/0.5% BSA, aspirated to pellet and placed into −80° C. freezer until further processing for flow. On the flow run day, PBMC plates were thawed and samples were transferred to PCR plates. The pre-perm staining cocktail (CD3 Ax488/CD8 BUV805/CD14 BUV395/CD16/56 BV711/CD19 BV785) was added to samples and incubated for 30 minutes at room temperature. Samples were washed two times and permeabilized with methanol for 10 minutes at 4° C. Samples were washed two times and the post-perm staining cocktail (CD4 PE/IRAK4 Ax647 BD #560315) was added and incubated for 30 minutes at room temperature. Samples were washed two times with PBS/BSA and run on a BD LSRFortessa. Mononuclear cells are gated by SSCH/FSCH and single cells. Monocytes are then gated through CD14 positive gate and lymphocytes are gated through CD14 negative gate. To determine absolute DC50 and max degradation values, MFI values were normalized to DMSO max and 20 hour 10 µM min control. Twenty hour dose curves were calculated using a 4 parameter logistic regression curve fit, no constraints (Top doses were removed if hook effects were observed and the bottom was constrained to 0).
as §1

Row | DC50 (IRAK4 [1]) [µM] | DC50 (IRAK4 [2]) [µM] | SMILES
1 | > 10 | 1 to 10 | COc1cc2nn([C@H]3CC[C@H](CNCCOCCOCCNc4cncc(N5CCC[C@H](C(=O)Nc6ccc(=O)n(CC(=O)O)c6)C5)c4)CC3)cc2cc1NC(=O)c1cccc(C(F)(F)F)n1 [Compound I-1]
2 | > 10 | > 10 | O=C(O)Cn1cc(NC(=O)[C@H]2CCCN(c3cncc(NCCOCCOCCNC[C@H]4CC[C@H](n5cc(NC(=O)c6cnn7ccc(N8C[C@H]9C[C@@H]8CO9)nc67)c(C(F)F)n5)CC4)c3)C2)ccc1=O [Compound I-2]
3 | > 10 | > 10 | COc1cc2nn([C@H]3CC[C@H](CNCCOCCOCCOCCOCCNc4cncc(N5CCC[C@H](C(=O)Nc6ccc(=O)n(CC(=O)O)c6)C5)c4)CC3)cc2cc1NC(=O)c1cccc(C(F)(F)F)n1 [Compound I-3]
4 | > 10 | > 10 | O=C(O)Cn1cc(NC(=O)[C@H]2CCCN(c3cncc(NCCOCCOCCOCCOCCNC[C@H]4CC[C@H](n5cc(NC(=O)c6cnn7ccc(N8C[C@H]9C[C@@H]8CO9)nc67)c(C(F)F)n5)CC4)c3)C2)ccc1=O [Compound I-4]
5 | > 10 | 1 to 10 | CCOC(=O)Cn1cc(NC(=O)[C@H]2CCCN(c3cncc(NCCOCCOCCNC[C@H]4CC[C@H](n5cc6cc(NC(=O)c7cccc(C(F)(F)F)n7)c(OC)cc6n5)CC4)c3)C2)ccc1=O [Compound I-5]
6 | > 10 | > 10 | CCOC(=O)Cn1cc(NC(=O)[C@H]2CCCN(c3cncc(NCCOCCOCCOCCOCCNC[C@H]4CC[C@H](n5cc(NC(=O)c6cnn7ccc(N8C[C@H]9C[C@@H]8CO9)nc67)c(C(F)F)n5)CC4)c3)C2)ccc1=O [Compound I-6]
7 | > 10 | > 10 | COc1cc2nn([C@H]3CC[C@H](CNCCNc4cncc(N5CCC[C@H](C(=O)Nc6ccc(=O)n(CC(=O)O)c6)C5)c4)CC3)cc2cc1NC(=O)c1cccc(C(F)(F)F)n1 [Compound I-7]
8 | > 10 | > 10 | O=C(O)Cn1cc(NC(=O)[C@H]2CCCN(c3cncc(NCCNC[C@H]4CC[C@H](n5cc(NC(=O)c6cnn7ccc(N8C[C@H]9C[C@@H]8CO9)nc67)c(C(F)F)n5)CC4)c3)C2)ccc1=O [Compound I-8]
9 | > 10 | 0.1 to 1 | COc1cc2nn([C@H]3CC[C@H](CN4CCC(OCC#Cc5cncc(N6CCC[C@H](C(=O)Nc7ccc(=O)n(CC(=O)O)c7)C6)c5)CC4)CC3)cc2cc1NC(=O)c1cccc(C(F)(F)F)n1 [Compound I-9]
10 | > 10 | > 10 | COc1cc2nn([C@H]3CC[C@H](CN4CCC(c5cncc(N6CCC[C@H](C(=O)Nc7ccc(=O)n(CC(=O)O)c7)C6)c5)CC4)CC3)cc2cc1NC(=O)c1cccc(C(F)(F)F)n1 [Compound I-10]
11 | > 10 | > 10 | O=C(O)Cn1cc(NC(=O)[C@H]2CCCN(c3cncc(C#CCOC4CCN(C[C@H]5CC[C@H](n6cc(NC(=O)c7cnn8ccc(N9C[C@H]%10C[C@@H]9CO%10)nc78)c(C(F)F)n6)CC5)CC4)c3)C2)ccc1=O [Compound I-11]
12 | > 10 | > 10 | O=C(O)Cn1cc(NC(=O)[C@H]2CCCN(c3cncc(C4CCN(C[C@H]5CC[C@H](n6cc(NC(=O)c7cnn8ccc(N9C[C@H]%10C[C@@H]9CO%10)nc78)c(C(F)F)n6)CC5)CC4)c3)C2)ccc1=O [Compound I-12]
13 | > 10 | 1 to 10 | CCOC(=O)Cn1cc(NC(=O)[C@H]2CCCN(c3cncc(NCCOCCOCCOCCOCCNC[C@H]4CC[C@H](n5cc6cc(NC(=O)c7cccc(C(F)(F)F)n7)c(OC)cc6n5)CC4)c3)C2)ccc1=O [Compound I-13]
14 | > 10 | > 10 | CCOC(=O)Cn1cc(NC(=O)[C@H]2CCCN(c3cncc(NCCNC[C@H]4CC[C@H](n5cc6cc(NC(=O)c7cccc(C(F)(F)F)n7)c(OC)cc6n5)CC4)c3)C2)ccc1=O [Compound I-14]
15 | > 10 | > 10 | CCOC(=O)Cn1cc(NC(=O)[C@H]2CCCN(c3cncc(NCCOCCOCCNC[C@H]4CC[C@H](n5cc(NC(=O)c6cnn7ccc(N8C[C@H]9C[C@@H]8CO9)nc67)c(C(F)F)n5)CC4)c3)C2)ccc1=O [Compound I-15]
16 | > 10 | > 10 | CCOC(=O)Cn1cc(NC(=O)[C@H]2CCCN(c3cncc(NCCNC[C@H]4CC[C@H](n5cc(NC(=O)c6cnn7ccc(N8C[C@H]9C[C@@H]8CO9)nc67)c(C(F)F)n5)CC4)c3)C2)ccc1=O [Compound I-16]
17 | > 10 | 1 to 10 | CCOC(=O)Cn1cc(NC(=O)[C@H]2CCCN(c3cncc(C4CCN(C[C@H]5CC[C@H](n6cc7cc(NC(=O)c8cccc(C(F)(F)F)n8)c(OC)cc7n6)CC5)CC4)c3)C2)ccc1=O [Compound I-17]
18 | > 10 | 1 to 10 | CCOC(=O)Cn1cc(NC(=O)[C@H]2CCCN(c3cncc(C4CCN(C[C@H]5CC[C@H](n6cc(NC(=O)c7cnn8ccc(N9C[C@H]%10C[C@@H]9CO%10)nc78)c(C(F)F)n6)CC5)CC4)c3)C2)ccc1=O [Compound I-18]
19 | > 10 | > 10 | COc1cc2nn([C@H]3CC[C@H](CN(C)CC4CCN(c5cncc(N6CCCC(C(=O)Nc7ccc(=O)n(CC(=O)O)c7)C6)c5)CC4)CC3)cc2cc1NC(=O)c1cccc(C(F)(F)F)n1 (stereo partly shown) [Compound I-19]
20 | > 10 | > 10 | CCOC(=O)Cn1cc(NC(=O)C2CCCN(c3cncc(N4CCC(CN(C)C[C@H]5CC[C@H](n6cc7cc(NC(=O)c8cccc(C(F)(F)F)n8)c(OC)cc7n6)CC5)CC4)c3)C2)ccc1=O (stereo partly shown) [Compound I-20]
21 | > 10 | 1 to 10 | O=C(O)Cn1cc(NC(=O)[C@H]2CCCN(c3cncc(CCCCNC[C@H]4CC[C@H](n5cc(NC(=O)c6cnn7ccc(N8C[C@H]9C[C@@H]8CO9)nc67)c(C(F)F)n5)CC4)c3)C2)ccc1=O [Compound I-21]
22 | > 10 | < 0.1 | CCOC(=O)Cn1cc(NC(=O)[C@H]2CCCN(c3cncc(C#CCOC4CCN(C[C@H]5CC[C@H](n6cc7cc(NC(=O)c8cccc(C(F)(F)F)n8)c(OC)cc7n6)CC5)CC4)c3)C2)ccc1=O [Compound I-22]
23 | > 10 | 1 to 10 | CCOC(=O)Cn1cc(NC(=O)[C@H]2CCCN(c3cncc(C#CCOC4CCN(C[C@H]5CC[C@H](n6cc(NC(=O)c7cnn8ccc(N9C[C@H]%10C[C@@H]9CO%10)nc78)c(C(F)F)n6)CC5)CC4)c3)C2)ccc1=O [Compound I-23]
